The values below come from patent US5610310A, “Cyclic lipid derivatives as potent PAF antagonists” (Pohang Iron & Steel Co., Ltd, priority 1995, dated 1997).

Broadly, the inhibition is the share of the control response that was lost under treatment. Low readings indicate a response near the control, high ones a response far below the control. For orientation: IC50 means the concentration at which inhibition is half-maximal. Lower therefore signals higher potency. As usually defined, the Ki is a measure of affinity in units of concentration, obtained from inhibition or displacement.

For assay [1], the system named is PAF-induced [^14 C]-serotonin release, rabbit platelets. Briefly: Inhibitory action on PAF-induced [^14 C]-serotonin release. In kind it is cell-based, rabbit (New Zealand white). As to conditions: Oryctolagus cuniculus, Platelet, PAF 1×10^-9 M; for inhibition at 0.2 µM: test compound 2 × 10^-7 M; for inhibition at 0.05 µM: test compound 5 × 10^-8 M; for inhibition at 0.005 µM: test compound 5 × 10^-9 M. On the procedure: Inhibitory action on PAF-induced [^14 C]-serotonin release
Blood was collected from the hearts of conscious New Zealand white male rabbits weighing 2 to 3 kg. The blood was immediately subjected to a centrifuge at 1400 rpm for 10 minutes to obtain platelet rich plasma(PRP).PRP was incubated with a trace mount of [^14 C]-serotonin for 20 minutes at 22° C. Prelabelled platelets were prepared by centrifugation at 3500 rpm for 10 minutes. The test compound was added to 80 μl of [^14 C] serotonin-labeled platelets in plastic test tubes, and the mixture was incubated for 2 minutes. PAF (1×10^-9 M) was then added to the reaction mixture and incubated for additional 2 minutes at which time 10 μl of cold formaldehyde was added to stop the reactions. The tubes were immediately cooled to 4° C. and centrifuged at 12000 rpm for 2 minutes. The supernatants (80 μl) were assayed for percentage of [^14 C] serotonin release by the conventional methods of measuring ^14 C counts.

In assay [2] the test system is PAF-induced platelet aggregation, rabbit platelet-rich plasma. Briefly: Inhibitory action on PAF-induced platelet aggregation. Format: cell-based, rabbit (New Zealand white). Particulars: Oryctolagus cuniculus, rabbit PRP, PAF 5×10^-9 M, 37° C. How it is done: Inhibitory action on PAF-induced platelet aggregation Blood was collected from the […] of conscious New Zealand white male rabbits weighing 2 to 3 kg using citric acid as an anticoagulant (one volume pan of 3% citric acid relative to 9 volume parts of the whole blood). […] PRP was diluted with PPP to adjust the number of platelets to about 3×10^5 /μl. […] Platelet aggregation was then examined by means of turbidimetry [Born, Nature, 194, 927(1962)] with dual channel aggegometer (Chrono-Log. Corp., Havertown, Pa.). As the control, physiological saline without test sample was used. The platelet aggregation inhibiting activities of the test sample are expressed as IC50, that is the concentration of the compound at which 50% of the aggregation is inhibited.

The target in assay [3] is T1, PAF receptor (rabbit platelet membranes) (Oryctolagus cuniculus, UniProt G1TEI7).
T1 construct: Rabbit platelets were prepared by centrifugation and washing; tissue Pel-Freez (Rogers, AR); host or cells: rabbit platelets (washed, from citrated whole blood; lysed membranes)
The assay can be described thus: PAF Receptor Binding Assay. Particulars: 0.6 nM [^3 H]C18 -PAF, 60 minutes, room temperature, calculated as IC50/2. On the procedure:
PAF Receptor Binding Assay Citrated whole rabbit blood was obtained from Pel-Freez(Rogers, AR). Rabbit platelets were prepared by centrifugation and washing. The platelets were lysed by freeze-thawing and sonification; Platelet membranes were prepared by centrifugation and washing. Final membrane preparation were stored frozen in 10 mM Tris/5 mM MgCl2 /2 mM EDTA (TME buffer, pH 7.0) with 0.25M sucrose added for membrane stabilization. […] The final volume of the assay was 100 μl. […] The […] and removed. The bound radioactivity was quantitated with a Berthold TLC-Linear Analyzer model LB2842. […] Experiments were repeated at least once. […] Ki values of inhibitory binding constants were calculated according to the methods of the literature[Cheng et al., Biochem.

T1 sequence (G1TEI7 1-342): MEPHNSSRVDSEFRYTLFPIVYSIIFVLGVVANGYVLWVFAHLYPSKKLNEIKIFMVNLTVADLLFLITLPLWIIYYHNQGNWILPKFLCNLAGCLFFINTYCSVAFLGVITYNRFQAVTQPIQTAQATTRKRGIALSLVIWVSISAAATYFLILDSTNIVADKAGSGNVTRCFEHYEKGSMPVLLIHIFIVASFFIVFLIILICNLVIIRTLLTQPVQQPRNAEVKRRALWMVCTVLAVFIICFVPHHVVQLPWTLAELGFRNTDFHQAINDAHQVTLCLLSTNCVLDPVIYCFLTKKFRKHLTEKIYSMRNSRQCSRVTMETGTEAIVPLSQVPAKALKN

On to `CCCCCCCCCCCCCCCCCCNC(=O)OCC1(COC(=O)CCCCC[n+]2ccsc2)COC1` [Example 13, 3-[5-[[[3-[[(Octadecylcarbamoyl)oxy]methyl]-3-oxetanyl]methoxy]carbonyl]pentyl]thiazolium bromide], for which the inhibition at 0.2 µM in assay [1] came to 92%. For the same molecule, the IC50 in assay [2] is 382 nM. Further, the Ki in assay [3] is 30.5 nM.
In the case of `CCCCCCCCCCCCCCCCOC[C@H]1C[C@H](COC(=O)N(Cc2cccc[n+]2CC)C(C)=O)O1` (relative stereo) [Example 2, trans-2-[[N-Acetyl-N-[[[4-[(hexadecyloxy)methyl]-2-oxetanyl]methoxy]carbonyl]amino]methyl]-1-ethyl-pyridinium iodide], in assay [1], 0.2 µM produced 98% inhibition, the inhibition at 0.05 µM was found to be 93% and the inhibition at 0.005 µM is 44%. Besides, 57 nM corresponded to half-maximal inhibition in assay [2] (IC50). Further, the Ki in assay [3] is 14.7 nM.
On the same counts, the results for `CCCCCCCCCCCCCCCCCCNC(=O)OCC1(COC(=O)N(Cc2cccc[n+]2CC)C(C)=O)CCC1` [Example 14, 2-[[N-Acetyl-N-[[[1-[[(octadecylcarbamoyl)oxy]methyl]-1-cyclobutyl]methoxy]carbonyl]amino]methyl]-1-ethyl-pyridinium iodide] are 99%, 98%, 18%, 118 nM and 6.6 nM.
In assay [1], `CCCCCCCCCCCCCCCCOCC1(COC(=O)CCCCC[n+]2ccccc2)COC1` [Example 10, N-[5-[[[3-[(Hexadecyloxy)methyl]-3-oxetanyl]methoxy]carbonyl]pentyl]pyridinium bromide] had an inhibition at 0.2 µM of 86% and an inhibition at 0.05 µM of 43%.
For the molecule `CCCCCCCCCCCCCCCCCCNC(=O)OCC1(COC(=O)N(Cc2cccc[n+]2CC)C(C)=O)COC1` [Example 6, 2-[[N-Acetyl-N-[[[3-[[(octadecylcarbamoyl)oxy]methyl]-3-oxetanyl]methoxy]carbonyl]amino]methyl]-1-ethyl-pyridinium iodide], in assay [1], the inhibition at 0.2 µM came out at 98% and the inhibition at 0.05 µM is 96%.
For `CCCCCCCCCCCCCCCCCCNC(=O)OC[C@@H]1C[C@H](COC(=O)N(Cc2cccc[n+]2CC)C(C)=O)O1` (relative stereo) [Example 3, cis-2-[[N-Acetyl-N-[[[4-[[(octadecylcarbamoyl)oxy]methyl]-2-oxetanyl]methoxy]carbonyl]amino]methyl]-1-ethyl-pyridinium iodide], in assay [1], the inhibition at 0.2 µM was found to be 97% and the inhibition at 0.005 µM amounted to 58%.
In turn, `CCCCCCCCCCCCCCCCOC[C@H]1C[C@@H](COC(=O)N(Cc2cccc[n+]2CC)C(C)=O)O1` (relative stereo) [Example 1, cis-2-[[N-Acetyl-N-[[[2-[(hexadecyloxy)methyl]-4-oxetanyl]methoxy]carbonyl]amino]methyl]-1-ethyl-pyridinium iodide] returned an inhibition at 0.05 µM in assay [1] of 51%. In assay [2], this molecule displayed a 50% inhibitory concentration (IC50) of 95 nM. Moreover, the Ki in assay [3] is 21.2 nM.
